Data reported in US20090076141A1, “Use of Propofol Prodrugs for Treating Neuropathic Pain” (XenoPort, Inc., priority 2007, published 2009).

Columns and labels:
male rats = test: Multiple dose study in rats (five days, once a day); type: in vivo; conditions: oral gavage once a day for five days, 49 to 97 mg-eq/kg
Procedure: Multiple dose studies in rats were performed by orally administering compound (2) formulated in water to groups of male rats at doses of 49 mg-eq/kg to 97 mg-eq/kg for a period of five days, by oral gavages administered once a day.

rats = test: Acute toxicity study, single oral dose in rats; type: in vivo
Procedure: Acute toxicity studies in rats were undertaken to assess the tolerance of a single oral dose of compound (2) formulated in water. […] Complete recovery from hypoactivity, sedation, and anesthesia occurred in all rats within about 8 hours after dose. Doses above about 1552 mg-eq/kg (about 800 mg-eq/kg of propofol) were not tested.

male beagle dogs = test: Acute toxicity study, single oral dose in dogs; type: in vivo
Procedure: Acute toxicity studies were also performed by orally administering a single dose of compound (2) formulated in water to groups of male beagle dogs at doses from about 25 mg-eq/kg to about 150 mg-eq/kg.

[1] = cited from earlier work
[2] = oral dosing, rats; cited from earlier work
[3] = orally administered as homogeneous liquid suspension, relative to equivalent intravenous dose of propofol; cited from earlier work
[4] = rats, single oral dose about 49 to about 388 mg-eq/kg
[5] = rats, single oral dose about 582 to about 970 mg-eq/kg
[6] = rats, single oral dose about 1164 to about 1552 mg-eq/kg

## CC(C)c1cccc(C(C)C)c1OC(=O)OC[C@H](N)C(=O)O (stereo in doubt) [Compound (2), 2-amino-3-(2,6-diisopropyl-phenoxycarbonyloxy)-propanoic acid]
Male rats
  adverse effects: No adverse effects were observed
  sedation or anesthesia: No sedation or anesthesia was observed
  tolerance of multiple doses: well tolerated
rats; all rats, single oral dose
  complete recovery from hypoactivity, sedation, and anesthesia, time after dose: ≤ 8 h
rats; rats, formulated in water, about 49 to about 1552 mg-eq/kg of administered compound
  tolerance of a single oral dose: well tolerated
rats; [4]
  onset of transient hypoactivity after dose: ≤ 30 min
  transient hypoactivity maintained, time post dose: up to 4 hours
rats; [5]
  onset of sedation after dose: ≤ 1.5 h
  sedation lasted, time post dose: up to 4 hours
rats; [6]
  anesthesia lasted, time post dose: up to 2 hours
  onset of anesthesia after dose: ≤ 1 h
Male beagle dogs; formulated in water, about 25 to about 150 mg-eq/kg
  tolerance of a single oral dose: well tolerated
Male beagle dogs; single oral dose about 25 to about 150 mg-eq/kg
  sedation or anesthesia: No sedation or anesthesia was observed

## CC(C)c1cccc(C(C)C)c1OCOP(=O)(O)O [O-phosphonooxymethyl propofol]
[1]; oral administration
  time to maximum propofol concentration: about 30 minutes
[1]; rats, relative to equivalent intravenous dose of propofol
  propofol oral bioavailability: 22.2%

## CC(C)c1cccc(C(C)C)c1O [propofol, 2,6-diisopropylphenol]
[2]
  administered drug undergoing first pass metabolism: approximately 90%
[3]
  oral bioavailability: less than 5%
